This note sets out measurements from ChEMBL document CHEMBL1909046, “DrugMatrix in vitro pharmacology data”.

SMILES strings stand for the structures.

As usually defined, the IC50 is the concentration that inhibits the measured activity by half. As usually defined, the Ki is the dissociation constant of the complex between target and ligand, obtained from inhibition or displacement.

For experiment [1], the target named is T1, Alpha-1A adrenergic receptor (Rattus norvegicus, UniProt P43140).
T1 sequence (P43140 whole entry): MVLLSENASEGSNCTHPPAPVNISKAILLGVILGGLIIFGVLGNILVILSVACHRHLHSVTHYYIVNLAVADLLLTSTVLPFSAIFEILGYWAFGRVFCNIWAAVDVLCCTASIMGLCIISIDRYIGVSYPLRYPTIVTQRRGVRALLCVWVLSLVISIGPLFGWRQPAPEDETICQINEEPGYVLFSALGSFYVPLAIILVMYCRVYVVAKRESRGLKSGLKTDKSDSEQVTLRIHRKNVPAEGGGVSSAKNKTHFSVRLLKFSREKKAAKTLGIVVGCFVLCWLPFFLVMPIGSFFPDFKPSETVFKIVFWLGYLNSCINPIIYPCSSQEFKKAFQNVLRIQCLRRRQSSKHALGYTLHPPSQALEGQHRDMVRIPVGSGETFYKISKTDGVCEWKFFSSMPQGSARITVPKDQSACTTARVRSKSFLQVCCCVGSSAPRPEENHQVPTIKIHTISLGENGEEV
Nature of the experiment: DRUGMATRIX: Alpha-1A adrenergic receptor radioligand binding (ligand: prazosin). Type of experiment: cell membranes, Wistar, Submaxillary gland, Membrane. The note with it: Not Active = under 50% inhibition at 10 µM; for Ki: read-out: Ki.

A short description of experiment [2]: DRUGMATRIX: Calcium Channel Type L, Benzothiazepine radioligand binding (ligand: [3H] Diltiazem). Type of experiment: cell membranes, Rattus norvegicus, Wistar, Brain, Membrane. Conditions: Not Active = under 50% inhibition at 10 µM.
The target in experiment [3] is T2, C-X-C chemokine receptor type 2 (Homo sapiens, UniProt P25025). Further: in other assays of this panel Not Active means under 50% inhibition at 10 µM.
T2 sequence (P25025 whole entry): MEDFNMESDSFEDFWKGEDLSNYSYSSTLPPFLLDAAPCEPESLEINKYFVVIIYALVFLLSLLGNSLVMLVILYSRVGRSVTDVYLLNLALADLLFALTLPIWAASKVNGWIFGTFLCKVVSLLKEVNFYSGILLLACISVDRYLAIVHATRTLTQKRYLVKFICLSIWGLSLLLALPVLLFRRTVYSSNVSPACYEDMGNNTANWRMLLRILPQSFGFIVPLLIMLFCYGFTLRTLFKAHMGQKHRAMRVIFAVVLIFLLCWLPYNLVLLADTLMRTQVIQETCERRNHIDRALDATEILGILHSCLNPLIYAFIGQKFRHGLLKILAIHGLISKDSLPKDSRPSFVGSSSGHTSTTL
The format is cell membranes, CHO-K1, Membrane.

A further experiment concerns the target T3, D(4) dopamine receptor (Homo sapiens, UniProt P21917).
T3 sequence (P21917 whole entry): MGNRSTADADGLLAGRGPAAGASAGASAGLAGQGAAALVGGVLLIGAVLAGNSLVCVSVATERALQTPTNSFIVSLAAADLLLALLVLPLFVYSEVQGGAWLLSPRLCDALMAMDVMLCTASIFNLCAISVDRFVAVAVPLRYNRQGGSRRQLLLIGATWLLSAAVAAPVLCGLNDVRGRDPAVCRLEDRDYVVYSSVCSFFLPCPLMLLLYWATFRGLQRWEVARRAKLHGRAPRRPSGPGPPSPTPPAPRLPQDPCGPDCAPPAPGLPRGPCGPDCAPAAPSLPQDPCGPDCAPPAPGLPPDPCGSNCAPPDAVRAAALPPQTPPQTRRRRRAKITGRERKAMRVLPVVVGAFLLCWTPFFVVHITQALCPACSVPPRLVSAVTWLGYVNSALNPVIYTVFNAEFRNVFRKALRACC
Nature of the experiment: DRUGMATRIX: Dopamine D4.2 radioligand binding (ligand: [3H] Spiperone). Conditions: Not Active = under 50% inhibition at 10 µM. The format is cell membranes, CHO-K1, Membrane.

In experiment [4] the target is T4, Neuropeptide Y receptor type 1 (Homo sapiens, UniProt P25929). Further: in other assays of this panel Not Active means under 50% inhibition at 10 µM.
T4 sequence (P25929 whole entry): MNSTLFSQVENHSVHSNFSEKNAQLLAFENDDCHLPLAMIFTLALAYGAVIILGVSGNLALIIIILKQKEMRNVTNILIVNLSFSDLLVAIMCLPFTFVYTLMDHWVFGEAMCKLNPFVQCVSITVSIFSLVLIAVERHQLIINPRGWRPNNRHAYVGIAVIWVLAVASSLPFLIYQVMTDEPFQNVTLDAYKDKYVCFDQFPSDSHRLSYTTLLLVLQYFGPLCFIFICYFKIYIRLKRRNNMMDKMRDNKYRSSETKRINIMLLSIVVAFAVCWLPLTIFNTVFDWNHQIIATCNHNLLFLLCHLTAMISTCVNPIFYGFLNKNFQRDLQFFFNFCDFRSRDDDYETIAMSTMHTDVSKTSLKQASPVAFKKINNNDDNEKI
Type of experiment: cell membranes, Membrane. Conditions: sk-n-mc.

A further experiment addresses T5, Neutrophil elastase (Homo sapiens, UniProt P08246).
T5 sequence (P08246 whole entry): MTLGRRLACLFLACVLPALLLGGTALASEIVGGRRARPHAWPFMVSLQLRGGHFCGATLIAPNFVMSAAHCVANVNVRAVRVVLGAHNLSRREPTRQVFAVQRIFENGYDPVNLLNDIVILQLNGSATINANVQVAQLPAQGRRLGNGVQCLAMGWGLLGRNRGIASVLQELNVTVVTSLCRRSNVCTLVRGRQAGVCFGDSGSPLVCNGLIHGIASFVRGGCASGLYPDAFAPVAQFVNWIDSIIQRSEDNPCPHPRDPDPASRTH
Type of experiment: tissue-based.

For `CC[C@H](C)[C@@H](CO[C@@H](Cc1ccccc1)C(=O)N[C@@H](CCS(C)(=O)=O)C(=O)OC(C)C)NC[C@@H](N)CS`, the IC50 result in experiment [1] is “Not Active”; in experiment [2] (read-out: IC50), 3570 nM; in experiment [3] (cho-k1), “Not Active”; at D(4) dopamine receptor (cho-k1) it was “Not Active”; in experiment [4] it was “Not Active”; against Neutrophil elastase, “Not Active”. For the same molecule, the inhibitory constant (Ki) in experiment [2] (read-out: Ki) amounted to 3170 nM.

Regarding `Nc1nc(N)c2nc(-c3ccccc3)c(N)nc2n1`, the IC50 entry (in experiment [1]; in experiment [2]; in experiment [3] (cho-k1); at D(4) dopamine receptor (cho-k1); in experiment [4]; against Neutrophil elastase) was “Not Active” each time. In addition, the Ki result in experiment [2] was “Not Active”.

Turning to `CCN(CC)C(=S)SSC(=S)N(CC)CC`, the IC50 entry in experiment [1] was “Not Active”; in experiment [2] it was “Not Active”; in experiment [3] (read-out: IC50) it was 6010 nM; on D(4) dopamine receptor (read-out: IC50) it was 3150 nM; in experiment [4], “Not Active”; at Neutrophil elastase it was “Not Active”. Also, the values for the Ki entry (in experiment [2]; in experiment [3] (read-out: Ki); at D(4) dopamine receptor (read-out: Ki)) were “Not Active”, 4210 nM and 1100 nM, respectively.

For the molecule `CN(C)CCC=C1c2ccccc2COc2ccccc21` [DOXEPIN], the IC50 was 107 nM in experiment [1] (read-out: IC50); “Not Active” in experiment [3] (cho-k1); “Not Active” at D(4) dopamine receptor (cho-k1); “Not Active” in experiment [4]; “Not Active” on Neutrophil elastase. For the same molecule, in experiment [1], the Ki stood at 43 nM.

Consider `O=C(c1ccccc1)c1ccc2n1CCC2C(=O)O` (stereo unspecified) [KETOROLAC], for which the IC50 entry (in experiment [1]; in experiment [2]; in experiment [3] (cho-k1); at D(4) dopamine receptor (cho-k1); in experiment [4]; on Neutrophil elastase) was “Not Active” each time. Moreover, the Ki result in experiment [2] is given as “Not Active”.

As for `CCOC(=O)C1=C(C)NC(C)=C(C(=O)OCC)C1c1ccccc1/C=C/C(=O)OC(C)(C)C` [LACIDIPINE], the IC50 result in experiment [1] is “Not Active”; in experiment [2] (read-out: IC50), 5.45 nM; in experiment [3] (cho-k1) it was “Not Active”; at D(4) dopamine receptor (cho-k1), “Not Active”; in experiment [4], “Not Active”; at Neutrophil elastase, “Not Active”. The Ki in experiment [2] (read-out: Ki) is 4.84 nM.

For the molecule `CC(O)C(=O)O` (stereo unspecified) [LACTIC ACID], the half-inhibitory concentration (IC50) entry (in experiment [1]; in experiment [2]; in experiment [3] (cho-k1); on D(4) dopamine receptor (cho-k1); in experiment [4]; at Neutrophil elastase) was “Not Active” each time. Moreover, in experiment [2], the inhibitory constant (Ki) result is “Not Active”.

Turning to `CC(C)(C)NC[C@H](O)COc1cccc2c1CCCC2=O` [LEVOBUNOLOL], the IC50 entry (in experiment [1]; in experiment [2]; in experiment [3] (cho-k1); at D(4) dopamine receptor (cho-k1); in experiment [4]; against Neutrophil elastase) was “Not Active” each time. Moreover, the Ki result in experiment [2] is reported as “Not Active”.

With `CO[C@@H]1[C@@H](OC)[C@H](C)[C@@](O)(CC(=O)O)O[C@H]1[C@H](C)[C@H]1O[C@@]2(CC[C@@](C)([C@H]3CC[C@@](C)([C@@H]4O[C@@H]([C@H]5O[C@](C)(O)[C@H](C)C[C@@H]5C)C[C@@H]4O[C@@H]4C[C@H](OC)[C@@H](OC)[C@H](C)O4)O3)O2)C[C@H](O)[C@H]1C.N` [MADURAMICIN], the IC50 result (in experiment [1]; in experiment [2]; in experiment [3] (cho-k1); on D(4) dopamine receptor (cho-k1); in experiment [4]; on Neutrophil elastase) was “Not Active” in each case. The Ki entry in experiment [2] is reported as “Not Active”.

Turning to `OC[C@@H](O)[C@@H](O)[C@H](O)[C@H](O)CO` [MANNITOL], the IC50 result (in experiment [1]; in experiment [2]; in experiment [3] (cho-k1); at D(4) dopamine receptor (cho-k1); in experiment [4]; on Neutrophil elastase) was “Not Active” throughout. The inhibition constant Ki result in experiment [2] is “Not Active”.

On to `CNCCCC12CCC(c3ccccc31)c1ccccc12` [MAPROTILINE], for which the IC50 was 567 nM in experiment [1] (read-out: IC50); “Not Active” in experiment [3] (cho-k1); “Not Active” on D(4) dopamine receptor (cho-k1); “Not Active” in experiment [4]; “Not Active” at Neutrophil elastase. In experiment [1], the inhibition constant (Ki) was found to be 230 nM.

As for `COC(=O)Nc1nc2ccc(C(=O)c3ccccc3)cc2[nH]1` [MEBENDAZOLE], the IC50 result (in experiment [1]; in experiment [2]; in experiment [3] (cho-k1); on D(4) dopamine receptor (cho-k1); in experiment [4]; on Neutrophil elastase) was “Not Active” in each case. In addition, the Ki result in experiment [2] is listed as “Not Active”.

In the case of `Cc1ccc(Cl)c(Nc2ccccc2C(=O)O)c1Cl` [MECLOFENAMIC ACID], the IC50 result (in experiment [1]; in experiment [2]; in experiment [3] (cho-k1); at D(4) dopamine receptor (cho-k1); in experiment [4]; against Neutrophil elastase) was “Not Active” each time. Besides, the inhibition constant Ki entry in experiment [2] was “Not Active”.

`CC(=O)O[C@]1(C(C)=O)CC[C@H]2[C@@H]3C[C@H](C)C4=CC(=O)CC[C@]4(C)[C@H]3CC[C@@]21C` [MEDROXYPROGESTERONE ACETATE]: the IC50 entry (in experiment [1]; in experiment [2]; in experiment [3] (cho-k1); at D(4) dopamine receptor (cho-k1); in experiment [4]; against Neutrophil elastase) was “Not Active” in each case. The Ki entry in experiment [2] was “Not Active”.

With `Cc1cnc(NC(=O)C2=C(O)c3ccccc3S(=O)(=O)N2C)s1` [MELOXICAM], the concentration for half-maximal inhibition (IC50) entry (in experiment [1]; in experiment [2]; in experiment [3] (cho-k1); on D(4) dopamine receptor (cho-k1); in experiment [4]; against Neutrophil elastase) was “Not Active” in each case. Also, in experiment [2], the Ki entry is “Not Active”.

Regarding `CN1C[C@H](CNC(=O)OCc2ccccc2)C[C@@H]2c3cccc4c3c(cn4C)C[C@H]21` [METERGOLINE], the IC50 in experiment [1] (read-out: IC50) was 95 nM; in experiment [2] (read-out: IC50) it was 268 nM; in experiment [3] (cho-k1), “Not Active”; on D(4) dopamine receptor (cho-k1), “Not Active”; in experiment [4], “Not Active”; against Neutrophil elastase, “Not Active”. In addition, the results for the inhibition constant (Ki) in experiment [1] and in experiment [2] (read-out: Ki) were 38 nM and 238 nM, respectively.

For `C[N+]1(C)[C@@H]2C[C@@H](OC(=O)[C@H](CO)c3ccccc3)C[C@H]1[C@@H]1O[C@@H]12.[Br-]` [METHSCOPOLAMINE BROMIDE], the half-maximal inhibitory concentration (IC50) result (in experiment [1]; in experiment [2]; in experiment [3] (cho-k1); at D(4) dopamine receptor (cho-k1); in experiment [4]; at Neutrophil elastase) was “Not Active” each time. The Ki entry in experiment [2] is “Not Active”.

In the case of `CCN(CC)CCNC(=O)c1cc(Cl)c(N)cc1OC` [METOCLOPRAMIDE], the concentration for half-maximal inhibition (IC50) entry (in experiment [1]; in experiment [2]; in experiment [3] (cho-k1); at D(4) dopamine receptor (cho-k1); in experiment [4]; at Neutrophil elastase) was “Not Active” throughout. In addition, in experiment [2], the Ki result is “Not Active”.

`Cc1cc2c(s1)Nc1ccccc1N=C2N1CCN(C)CC1` [OLANZAPINE]: the half-maximal inhibitory concentration (IC50) entry (in experiment [3] (cho-k1); at D(4) dopamine receptor (cho-k1); in experiment [4]; against Neutrophil elastase) was “Not Active” each time.
